Measured values as given in US9650340B2, “5-fluoro-N-(pyridin-2-yl)pyridin-2-amine derivatives containing a sulfoximine group” (BAYER PHARMA AKTIENGESELLSCHAFT, priority 2012, dated 2017).
Where a name gives a salt, the structure may show the parent alone. Read-outs that look alike come from different tables or passages of the source.

Experiments:
[1] = test system: B16F10, mouse melanoma cells; assay: Proliferation assay, B16F10 (crystal violet); assay type: cell-based; conditions: B16F10, 4 days, read-out: Inhibition of B16F10 cell proliferation IC50
Method: (§1) Cultivated tumour cells (HeLa, human cervical tumour cells, ATCC CCL-2; NCI-H460, human non-small cell lung carcinoma cells, ATCC HTB-177; A2780, human ovarian carcinoma cells, ECACC #93112519; DU 145, hormone-independent human prostate carcinoma cells, ATCC HTB-81; HeLa-MaTu-ADR, multidrug-resistant human cervical carcinoma cells, EPO-GmbH Berlin; Caco-2, human colorectal carcinoma cells, ATCC HTB-37; B16F10, mouse melanoma cells, ATCC CRL-6475) were plated at a density of 5,000 cells/well (DU145, HeLa-MaTu-ADR), 3,000 cells/well (NCI-H460, HeLa), 2,500 cells/well (A2780), 1,500 cells/well (Caco-2), or 1,000 cells/well (B16F10) in a 96-well multititer plate in 200 μL of their respective growth medium supplemented 10% fetal calf serum. After 24 hours, the cells of one plate (zero-point plate) were stained with crystal violet (see below), while the medium of the other plates was replaced by fresh culture medium (200 μl), to which the test substances were added in various concentrations (0 μM, as well as in the range of 0.001-10 μM; the final concentration of the solvent dimethyl sulfoxide was 0.5%). The cells were incubated for 4 days in the presence of test substances. Cell proliferation was determined by staining the cells with crystal violet: the cells were fixed by adding 20 μl/measuring point of an 11% glutaric aldehyde solution for 15 minutes at room temperature. After three washing cycles of the fixed cells with water, the plates were dried at room temperature. The cells were stained by adding 100 μl/measuring point of a 0.1% crystal violet solution (pH 3.0). After three washing cycles of the stained cells with water, the plates were dried at room temperature. The dye was dissolved by adding 100 μl/measuring point of a 10% acetic acid solution. The extinction was determined by photometry at a wavelength of 595 nm. The change of cell number, in percent, was calculated by normalization of the measured values to the extinction values of the zero-point plate (=0%) and the extinction of the untreated (0 μm) cells (=100%). The IC50 values (inhibitory concentration at 50% of maximal effect) were determined by means of a 4 parameter fit. Non-adherent MOLM-13 human acute myeloid leukemia cells (DSMZ ACC 554) were seeded at a density of 5,000 cells/well in a 96-well multititer plate in 100 μL of growth medium supplemented 10% fetal calf serum. After 24 hours, cell viability of one plate (zero-point plate) was determined with the Cell Titre-Glo Luminescent Cell Viability Assay (Promega), while 50 μL of test compound containing medium was added to the wells of the other plates (final concentrations in the range of 0.001-10 μM and DMSO controls; the final concentration of the solvent dimethyl sulfoxide was 0.5%). Cell viability was assessed after 72-hour exposure with the Cell Titre-Glo Luminescent Cell Viability Assay (Promega).

[2] = test system: HeLa, human cervical tumour cells; assay: Proliferation assay, HeLa (crystal violet); assay type: cell-based; conditions: 4 days, read-out: Inhibition of HeLa cell proliferation IC50
Method: as §1

[3] = test system: NCI-H460, human non-small cell lung carcinoma cells; assay: Proliferation assay, NCI-H460 (crystal violet); assay type: cell-based; conditions: NCI-H460, 4 days, read-out: Inhibition of NCI-H460 cell proliferation IC50
Method: as §1

CDK9/CycT1 = molecular target: T1, CDK9/CycT1 (Homo sapiens, UniProt P50750); assay: CDK9/CycT1 kinase assay (TR-FRET, 10 μM ATP); assay type: biochemical; conditions: Method 1a
T1 construct: Recombinant full-length His-tagged human CDK9 and CycT1; His; purchased Invitrogen PV4131; host or cells: insect cells
Description: 1a. CDK9/CyeT1 Kinase Assay:
CDK9/CycT1-inhibitory activity of compounds of the present invention was quantified employing the CDK9/CycT1 TR-FRET assay as described in the following paragraphs:
Recombinant full-length His-tagged human CDK9 and CycT1, expressed in insect cells and purified by Ni-NTA affinity chromatography, were purchased from Invitrogen (Cat. No PV4131). As substrate for the kinase reaction biotinylated peptide biotin-Ttds-[…] (C-terminus in amid form) was used which can be purchased e.g. form the company JERINI Peptide Technologies (Berlin, Germany). For the assay 50 nl of a 100 fold concentrated solution of the test compound in DMSO was pipetted into a black low volume 384 well microtiter plate (Greiner Bio-One, Frickenhausen, Germany), 2 μl of a solution of CDK9/CycT1 in aqueous assay buffer [50 mM Tris/HCl pH 8.0, 10 mM MgCl2, 1.0 mM dithiothreitol, 0.1 mM sodium ortho-vanadate, 0.01% (v/v) Nonidet-P40 (Sigma)] were added and the mixture was incubated for 15 min at 22° C. to allow pre-binding of the test compounds to the enzyme before the start of the kinase reaction.
The resulting mixture was incubated 1 h at 22° C. to allow the formation of complex between the phosphorylated biotinylated peptide and the detection reagents. Subsequently the amount of phosphorylated substrate was evaluated by measurement of the resonance energy transfer from the Eu-chelate to the streptavidine-XL.

T1 sequence (P50750 whole entry): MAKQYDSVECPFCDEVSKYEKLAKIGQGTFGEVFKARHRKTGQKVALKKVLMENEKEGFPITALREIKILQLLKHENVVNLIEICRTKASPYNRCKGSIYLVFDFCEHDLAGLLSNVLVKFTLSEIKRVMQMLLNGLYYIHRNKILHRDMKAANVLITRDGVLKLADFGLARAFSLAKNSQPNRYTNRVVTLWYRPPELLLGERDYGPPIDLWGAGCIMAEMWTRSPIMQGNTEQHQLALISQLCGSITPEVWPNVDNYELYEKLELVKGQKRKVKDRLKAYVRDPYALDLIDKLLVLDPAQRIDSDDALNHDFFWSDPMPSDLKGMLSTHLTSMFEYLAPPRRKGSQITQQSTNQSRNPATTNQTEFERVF
T1 sequence (O60563 whole entry partner): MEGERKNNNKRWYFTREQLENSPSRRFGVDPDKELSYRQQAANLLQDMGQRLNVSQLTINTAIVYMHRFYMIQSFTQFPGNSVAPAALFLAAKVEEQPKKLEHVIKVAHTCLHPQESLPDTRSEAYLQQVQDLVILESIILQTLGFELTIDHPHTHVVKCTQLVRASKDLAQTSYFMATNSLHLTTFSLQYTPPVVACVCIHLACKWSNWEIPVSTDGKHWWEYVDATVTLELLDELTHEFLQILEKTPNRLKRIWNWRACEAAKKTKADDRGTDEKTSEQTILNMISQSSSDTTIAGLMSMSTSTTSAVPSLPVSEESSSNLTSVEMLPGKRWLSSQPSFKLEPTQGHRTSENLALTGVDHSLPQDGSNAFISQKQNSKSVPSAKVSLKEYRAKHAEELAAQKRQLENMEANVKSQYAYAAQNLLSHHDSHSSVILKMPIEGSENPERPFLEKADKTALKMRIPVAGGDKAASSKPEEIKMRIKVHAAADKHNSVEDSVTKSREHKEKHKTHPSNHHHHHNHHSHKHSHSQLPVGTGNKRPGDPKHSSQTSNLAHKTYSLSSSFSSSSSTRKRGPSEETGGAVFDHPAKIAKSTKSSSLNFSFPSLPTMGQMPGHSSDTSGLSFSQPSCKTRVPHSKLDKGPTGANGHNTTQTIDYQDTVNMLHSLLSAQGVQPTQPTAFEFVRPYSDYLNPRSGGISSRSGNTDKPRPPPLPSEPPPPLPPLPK

Row | SMILES | IC50 ([1]; Mus musculus, B16-F10, 96 h) [µM] | IC50 ([2]; Homo sapiens, 96 h) [µM] | IC50 ([3]; Homo sapiens, NCI-H460, 96 h) [µM] | IC50 (CDK9/CycT1) [µM] | IC50 [1] [µM] | IC50 [2] [µM] | IC50 [3] [µM]
1 | COc1cc(F)ccc1-c1cc(Nc2cc(CS(C)(=N)=O)ccn2)ncc1F (racemic) [Example 1, (rac)-5-Fluoro-4-(4-fluoro-2-methoxyphenyl)-N-{4-[(S-methylsulfonimidoyl)methyl]pyridin-2-yl}pyridin-2-amine] | 0.11 | 0.095 | 0.062 |  |  |  | 
2 | COc1cc(F)ccc1-c1cc(Nc2cc(CS(C)(=N)=O)cc(C)n2)ncc1F (racemic) [Example 4, (rac)-5-Fluoro-4-(4-fluoro-2-methoxyphenyl)-N-{6-methyl-4-[(S-methylsulfonimidoyl)methyl]pyridin-2-yl}pyridin-2-amine] | 0.1 | 0.035 | 0.097 | 0.004 |  |  | 
3 | COc1cc(F)ccc1-c1cc(Nc2cc(CS(C)(=N)=O)c(Br)c(C)n2)ncc1F (racemic) [Example 5, (rac)-5-Bromo-N-[5-fluoro-4-(4-fluoro-2-methoxyphenyl)pyridin-2-yl]-6-methyl-4-[(S-methylsulfonimidoyl)methyl]pyridin-2-amine] | 0.12 | 0.093 | 0.12 | 0.005 |  |  | 
4 | COc1cc(CS(C)(=N)=O)cc(Nc2cc(-c3ccc(F)cc3OC)c(F)cn2)n1 (racemic) [Example 6, (rac)-5-Fluoro-4-(4-fluoro-2-methoxyphenyl)-N-{6-methoxy-4-[(S-methylsulfonimidoyl)methyl]pyridin-2-yl}pyridin-2-amine] | 0.033 | 0.021 | 0.033 | 0.002 |  |  | 
5 | COc1cc(F)ccc1-c1cc(Nc2cc(CS(C)(=N)=O)cc(Cl)n2)ncc1F (racemic) [Example 7, (rac)-N-{6-Chloro-4-[(S-methylsulfonimidoyl)methyl]pyridin-2-yl}-5-fluoro-4-(4-fluoro-2-methoxyphenyl)pyridin-2-amine] | 0.034 | 0.032 | 0.047 | 0.002 |  |  | 
6 | COc1cc(F)ccc1-c1cc(Nc2cc(CS(=N)(=O)CCO)ccn2)ncc1F (racemic) [Example 8, (rac)-2-{S-[(2-{[5-Fluoro-4-(4-fluoro-2-methoxyphenyl)pyridin-2-yl]amino}pyridin-4-yl)methyl]sulfonimidoyl}ethanol] | 0.186 | 0.14 | 0.29 | 0.013 |  |  | 
7 | COc1cc(F)ccc1-c1cc(Nc2cc(CS(=N)(=O)CCN)ccn2)ncc1F (racemic) [Example 9, (rac)-N-(4-{[S-(2-Aminoethyl)sulfonimidoyl]methyl}pyridin-2-yl)-5-fluoro-4-(4-fluoro-2-methoxyphenyl)pyridin-2-amine] |  | 0.41 |  | 0.008 |  |  | 
8 | CCOC(=O)N=S(C)(=O)Cc1ccnc(Nc2cc(-c3ccc(F)cc3OC)c(F)cn2)c1 (racemic) [Example 11, (rac)-Ethyl{[(2-{[5-fluoro-4-(4-fluoro-2-methoxyphenyl)pyridin-2-yl]amino}pyridin-4-yl)methyl](methyl)oxido-λ^6-sulfanylidene}carbamate] | 0.18 | 0.072 | 0.11 | 0.001 |  |  | 
9 | COc1cc(F)ccc1-c1cc(Nc2cc(CS(C)(=N)=O)cc(C(F)F)n2)ncc1F (racemic) [Example 31, (rac)-N-{6-(Difluoromethyl)-4-[(S-methylsulfonimidoyl)methyl]pyridin-2-yl}-5-fluoro-4-(4-fluoro-2-methoxyphenyl)pyridin-2-amine] |  | 0.008 |  | 0.003 |  |  | 
10 | COc1cc(F)ccc1-c1cc(Nc2cc(CS(C)(=N)=O)ccn2)ncc1F (single isomer, unassigned; (+)) [Example 2, (+)-5-Fluoro-4-(4-fluoro-2-methoxyphenyl)-N-{4-[(S-methylsulfonimidoyl)methyl]pyridin-2-yl}pyridin-2-amine] |  |  |  |  | 0.24 | 0.11 | 0.075
11 | COc1cc(F)ccc1-c1cc(Nc2cc(CS(C)(=N)=O)cc(F)n2)ncc1F (single isomer, unassigned; (+)) [Example 19, (+)-5-Fluoro-4-(4-fluoro-2-methoxyphenyl)-N-{6-fluoro-4-[(S-methylsulfonimidoyl)methyl]pyridin-2-yl}pyridin-2-amine] | 0.095 |  | 0.11 | 0.005 |  |  | 
12 | COc1cc(F)ccc1-c1cc(Nc2cc(CS(C)(=N)=O)cc(C)n2)ncc1F (single isomer, unassigned; (+)) [Example 32, (+)-5-Fluoro-4-(4-fluoro-2-methoxyphenyl)-N-{6-methyl-4-[(S-methylsulfonimidoyl)methyl]pyridin-2-yl}pyridin-2-amine] | 0.098 | 0.031 |  |  |  |  | 0.1
13 | COc1cc(F)ccc1-c1cc(Nc2cc(CS(C)(=N)=O)ccn2)ncc1F (single isomer, unassigned; (-)) [Example 3, (−)-5-Fluoro-4-(4-fluoro-2-methoxyphenyl)-N-{4-[(S-methylsulfonimidoyl)methyl]pyridin-2-yl}pyridin-2-amine] |  |  |  |  | 0.31 | 0.1 | 0.065
14 | COc1cc(F)ccc1-c1cc(Nc2cc(CS(C)(=N)=O)cc(C(F)(F)F)n2)ncc1F (single isomer, unassigned; (-)) [Example 23, (−)-5-Fluoro-4-(4-fluoro-2-methoxyphenyl)-N-{4-[(S-methylsulfonimidoyl)methyl]-6-(trifluoromethyl)pyridin-2-yl}pyridin-2-amine] |  |  |  |  | 0.047 | 0.03 | 0.035
15 | COc1cc(F)ccc1-c1cc(Nc2cc(CS(C)(=N)=O)cc(C)n2)ncc1F (single isomer, unassigned; (-)) [Example 33, (−)-5-Fluoro-4-(4-fluoro-2-methoxyphenyl)-N-{6-methyl-4-[(S-methylsulfonimidoyl)methyl]pyridin-2-yl}pyridin-2-amine] |  |  |  |  | 0.054 | 0.019 | 0.03
16 | COc1cc(F)ccc1-c1cc(Nc2cc(CS(C)(=N)=O)ccn2)ncc1F (single isomer, unassigned; enantiomer 1) [Example 16, 5-Fluoro-4-(4-fluoro-2-methoxyphenyl)-N-{4-[(S-methylsulfonimidoyl)methyl]pyridin-2-yl}pyridin-2-amine hydrochloride; enantiomer 1] |  |  |  |  | 0.15 | 0.063 | 0.13
17 | COc1cc(F)ccc1-c1cc(Nc2cc(CS(C)(=N)=O)ccn2)ncc1F.Cl (single isomer, unassigned; enantiomer 2) [Example 14, 5-Fluoro-4-(4-fluoro-2-methoxyphenyl)-N-{4-[(S-methylsulfonimidoyl)methyl]pyridin-2-yl}pyridin-2-amine hydrochloride; enantiomer 2] |  |  |  |  | 0.073 | 0.042 | 0.03
